Reference: US20240277006A1, “ANTIBIOTIC-FREE ANTIMICROBIAL FEED ADDITIVES AND ANTIMICROBIAL COMPOSITIONS” (Sláinte Beoga Teoranta, priority 2018, published 2024)

System: E. coli (1103 DSMZ)
Assay: Checkerboard assay, composition with antibiotic
Assay type: cell-based
Details: composition comprising a source of iodide ions and a source of hydrogen peroxide plus antibiotic
Protocol: Checkerboard assays were carried out to determine if there is a synergistic antagonistic effect with the addition of an antibiotic to a composition comprising a source of iodide ions and a source of hydrogen peroxide. • E. coli (1103 DSMZ) was used for tests • These tests were carried out in lysogeny broth (lb) • Antibiotics tested were ampicillin and gentamycin • Procedure: • 50 μl antibiotic • 100 μl composition • 150 μl 10^5 cells in LB Results
Cells shaded in dark grey represent sub-inhibitory concentrations where growth prevailed. Bacterial growth was prevented for the remaining cells. […] However, in the presence of both the composition and the antibiotic, the concentrations required to achieve a kill are lower—in other words, the combined MIC is lower. These can be seen by the entries marked with a star (*).

SMILES	Effect of the antibiotic in combination with the composition
CC[C@H]1OC(=O)[C@H](C)[C@@H](O[C@H]2C[C@@](C)(OC)[C@@H](O)[C@H](C)O2)[C@H](C)[C@@H](O[C@@H]2O[C@H](C)C[C@H](N(C)C)[C@H]2O)[C@](C)(OC)C[C@@H](C)C(=O)[C@H](C)[C@@H](O)[C@]1(C)O [clarithromycin]	synergistic effect
CC[C@H]1OC(=O)[C@H](C)[C@@H](O[C@H]2C[C@@](C)(OC)[C@@H](O)[C@H](C)O2)[C@H](C)[C@@H](O[C@@H]2O[C@H](C)C[C@H](N(C)C)[C@H]2O)[C@](C)(O)C[C@@H](C)C(=O)[C@H](C)[C@@H](O)[C@]1(C)O [erythromycin]	synergistic effect
